# Data from patent publication EP1028725B1, “USE OF VASOPRESSIN ANTAGONISTS FOR TREATING DISTURBANCES OR ILLNESSES OF THE INNER EAR” (Otogene Aktiengesellschaft, priority 1997, dated 2004).
# Tested on: Menschlicher Saccus endolymphaticus
# Experiment: Light-microscopic autoradiography of 125I-arginine-vasopressin binding on frozen tissue sections
# Set-up: species or system menschlich
# Conditions: overnight at 4 °C; unspecific binding checked with 10 µM unlabelled Arginin-Vasopressin
# Protocol: Menschlicher Saccus endolymphaticus wurde von sechs Autopsien und zwei operierten Patienten mit Einwilligung der Verwandten bzw. der Patienten erhalten. Gefrorene Schnitte (20 µm) wurden auf einem Kryostaten bei -16 °C geschnitten, auf Gelatine-beschichtete Plättchen aufgebracht und über Nacht unter Vakuum bei 4 °C gelagert. […] Die radiomarkierten Schnitte wurden mit NTB-2 Nuklearemulsion (Eastman Kodak) beschichtet und für die lichtmikroskopische Autoradiographie präpariert. Die beschichteten Plättchen wurden in der Dunkelheit bei 4 °C für drei bis acht Tage gelagert. Nach Entwickeln und Fixieren wurden die Plättchen mit Haematoxylin/Eosin gefärbt.
substance,measurement,value
^125I-Arginin-Vasopressin [radioaktivem Vasopressin],Bindung im Epithel des endolymphatischen Sacks,spezifische Bindung
